{
  "source": "patent US5328985A",
  "about": "“Recombinant streptavidin-protein chimeras useful for conjugation of molecules in the immune system” (priority 1991, dated 1994)",
  "tested_on": "recombinant streptavidin-Protein A chimeric protein encoded in pTSAPA-2 (streptavidin residues 16-133 fused to Protein A regions E and D; 31.4 kDa subunit …)",
  "test": "Determination of biotin-binding ability by gel filtration with D-[carbonyl-14C]biotin",
  "conditions": "purified chimeric protein, subunit 31.4 kDa; room temperature, TBS; Sephadex G-25 gel filtration",
  "method": "Biotin-binding ability was determined by gel filtration according to Methods Enzymol., 18A:424 (1970) using a Sephadex G-25 desalting column (PD-10; 0.76×5.0 cm, Pharmacia-LKB) and D-[carbonyl-^14 C]biotin (52 mCi/mmol, Amersham). The binding of the chimeric protein to biotin was done at room temperature in TBS containing 0.02% NAN3, and the same solution was used as the eluent.",
  "data": [
    {"smiles": "O=C(O)CCCC[C@@H]1SC[C@@H]2NC(=O)N[C@@H]21", "note": "[biotin, D-biotin]", "values": [
      {"measurement": "biotin-binding ability: molecules of biotin bound per subunit", "result": "more than 0.96 molecules of biotin per subunit"}
    ]}
  ]
}
